Measurements: patent US12193442B2, “Modulation of plant biology” (FBSCIENCES HOLDINGS, INC., priority 2012, dated 2025)

Legend:
Type in all cases: in vivo
[1] = tested on: tomato plants (Lycopersicon es.); assay: Experiment Fe-4: addition of low levels of iron to CPPA, foliar application; settings: for Leaf # / Plt. Ht. / Plt. Wt. / Root Wt. / Shoot Wt. / Vigor: foliar
Source text: Experiment Fe-4: The purpose of this experiment was to determine if the addition of low levels of iron to a CPPA sample containing lower than typical amounts of iron (e.g., Fe/TOC=0.135) would increase the biological response of plants. Nominal Fe/TOC ratios for CPPA range from 0.10 to 0.28 but the optimum ratio for “as-is” samples of CPPA, as determined in the previous experiments, is between 0.2 and 0.25. Thus, for this experiment, non-agrochemically effective amounts of iron were combined with CPPA samples. Tomato plants (Lycopersicon es.) were produced from seed and transplanted into 3 inch by 3 inch pots. There were 16 treatments plus an untreated check with 20 replicates per treatment arranged in a Randomized Complete Block design. Pots were treated with water (UTC), or CPPA only (3 different rates), Fe only (3 different rates), or CPPA and Fe at each of the rates. The CPPA rates corresponded to 260, 520, and 1040 mg organic carbon (TOC) per hectare and the Fe rates corresponded to 130, 260, and 520 mg Fe per hectare. All pots were treated by foliar application immediately after transplanting. Ten days after the application, ten of the plants were harvested and assessed for vigor, leaf number, plant height, plant weight, root weight, and shoot weight. […] Additional application rates of CPPA and Fe were evaluated with similar synergistic results observed for the combination of CPPA with amounts of iron. Twenty days after transplanting, the remaining ten plants in each treatment were assessed.

[2] = tested on: seeds; assay: Seed treatment observations with CPPA, iron-removed CPPA and Fe; settings: treating seeds with Fe alone
Source text: These observations support the premise that the combination of CPPA and Fe are synergistic in their interaction and biological effect on plants and/or seeds.

[3] = tested on: tomato plants (Lycopersicon es.); assay: Experiment Salt-1: CPPA/NaCl composition, foliar application
Procedure: Experiment Salt-1: […] There were a total of 5 treatments plus an untreated check, each with 10 replicates per treatment arranged in a randomized block design. […] Each treatment comprised samples treated with CPPA alone, salt alone, or CPPA plus salt. Two rates of CPPA were used; the first was equivalent to 520 mg of TOC per hectare and a second equivalent to 1040 mg of TOC per hectare. Salt was applied at a rate equivalent to 2.6 g of salt per hectare. All treatments were diluted with water to provide a final spray volume equivalent to 208 lit per hectare, made with a spray bottle, with just enough spray solution to wet the leaf surface of each plant. Ten days after treatment the plants were assessed for vigor, leaf number, plant height, plant weight, root weight, shoot weight, and leaf conductance using a SPAD meter and are summarized in Table 8 and depicted in FIGS. 10-16.

[4] = tested on: wheat seeds (Triticum aestivum); assay: Experiment Salt-3: soil treatments of CPPA/salt formulations; settings: soil drench, 28 days after treatment
Procedure: For this experiment, wheat seeds (Triticum aestivum) were planted in small pots, approximately 1 inch in diameter and an inch in depth. There were a total of 8 treatments plus an untreated check, with 20 replicates per treatment arranged in a randomized block design. […] Treatments contained CPPA alone, salt alone, or CPPA plus salt. Two rates of CPPA were used; the first was equivalent to 520 mg of TOC per hectare and a second equivalent to 1040 mg of TOC per hectare. […] Twenty eight days after treatment the plants were assessed for plant weight, root weight, and shoot weight. FIG. 19 depicts plant weight, root weight, and shoot weight results for treatments with 520 mg CPPA/ha in combination with varying salt rates, which are summarized in Table 12.

[5] = tested on: tomato plants (Lycopersicon es.); assay: Experiment Salt-2: foliar treatment of CPPA/salt formulations; settings: ten and twenty day assessments averaged
Procedure: There were a total of 8 treatments plus an untreated check, with 20 replicates per treatment arranged in a randomized block design. Aqueous solutions of CPPA (1000 mg TOC/L) and salt (5000 mg/L) were used for this experiment and all plants were treated with a foliar application at the time they were transplanted into the pots. Each treatment contained CPPA alone, salt alone, or CPPA plus salt. Two rates of CPPA were used; the first was equivalent to 260 mg of TOC per hectare and a second equivalent to 1040 mg of TOC per hectare. […] All treatments were diluted with water to provide a final spray volume equivalent to 208 lit per hectare, applied with a spray bottle, with just enough spray solution to wet the leaf surface of each plant. Ten days after applications, ten each of the plant samples in each treatment were assessed for vigor, leaf number, plant height, plant weight, root weight, and shoot weight. Assessments were repeated at twenty days with the remaining ten plants of each treatment and the results were averaged. FIG. 17 depicts observed vigor, leaf number, plant height, plant weight, root weight, and shoot weight results for treatments to the tomato plants with 0 mg and 260 mg CPPA/ha application rate with variable salt application rates, which are also summarized in Table 4.

[6] = CPPA 260 mg TOC/ha and/or Fe 130 mg Fe/ha (FeSO4), second assessment, 20 days after application
[7] = CPPA 520 mg TOC/ha and/or Fe 130 mg Fe/ha (FeSO4), 20 days after application
[8] = CPPA 1040 mg TOC/ha and/or Fe 520 mg Fe/ha (FeSO4), first assessment, 10 days after application
[9] = CPPA 1040 mg TOC/ha and/or Fe 520 mg Fe/ha (FeSO4), second assessment, 20 days after application
[10] = CPPA 520 mg TOC/ha and/or NaCl 2600 mg/ha, ten days after treatment
[11] = CP 520 mg/ha and/or NaCl 1300 mg/ha
[12] = CP 1040 mg TOC/ha and/or NaCl 1300 mg/ha
[13] = NaCl 2600 mg/ha alone or with CP 520 mg/ha
[14] = NaCl 2600 mg/ha alone or with CP 1040 mg TOC/ha
[15] = CP 1040 mg/ha and/or NaCl 1300 mg/ha
[16] = NaCl 2600 mg/ha alone or with CP 1040 mg/ha

O=S(=O)([O-])[O-].[Fe+2] [Fe, FeSO4]
Leaf # [1, 6]: 6.3 ab
Plt. Ht. [1, 6]: 6.4 abc
Plt. Wt. [1, 6]: 6.4 c
Root Wt. [1, 6]: 3.0 c
Shoot Wt. [1, 6]: 3.4 cd
Vigor [1, 6]: 2.1 c
Leaf # [1, 7]: 6.3 ab
Plt. Ht. [1, 7]: 6.4 ab
Plt. Wt. [1, 7]: 6.4 b
Root Wt. [1, 7]: 3.0 b
Shoot Wt. [1, 7]: 3.4 ab
Vigor [1, 7]: 2.1 c
Leaf # [1, 8]: 6.6 ab
Plt. Ht. [1, 8]: 4.2 b
Plt. Wt. [1, 8]: 4.9 b
Root Wt. [1, 8]: 1.4 bc
Shoot Wt. [1, 8]: 3.6 b
Vigor [1, 8]: 3.8 b
Leaf # [1, 9]: 5.1 b
Plt. Ht. [1, 9]: 6.3 b
Plt. Wt. [1, 9]: 4.5 b
Root Wt. [1, 9]: 1.6 bc
Shoot Wt. [1, 9]: 2.9 cd
Vigor [1, 9]: 2.5 c
biological effect on plant, root and shoot weights relative to UTC ([1]; high application rate of CPPA alone or of Fe alone, FIG. 9F, Table 4): apparent slightly negative biological effect on the plant, root and shoot weights, although it was not statistically significant
root development and shoot development [2]: negative effect on root development and on shoot development

[Cl-].[Na+] [NaCl]
Leaf # [3, 10]: 5.3 e
Plt. Ht. [3, 10]: 3.5 b
Plt. Wt. [3, 10]: 2.7 c
Root Wt. [3, 10]: 0.8jc
SPAD (leaf conductance using a SPAD meter) [3, 10]: 24.2 b
Shoot Wt. [3, 10]: 2.0 c
Vigor [3, 10]: 2.4 b
phytotoxicity of salt and its mitigation ([3]; Table 8, ten days): expected poorest results, indicating a significant amount of phytotoxicity
Plt. Wt. [4, 11]: 2.1cd
Root Wt. [4, 11]: 0.4bc
Shoot Wt. [4, 11]: 1.8c
Plt. Wt. [4, 12]: 2.1de
Root Wt. [4, 12]: 0.4cd
Shoot Wt. [4, 12]: 1.8 days
Plt. Wt. [4, 13]: 2 days
Root Wt. [4, 13]: 0.3cd
Shoot Wt. [4, 13]: 1.7c
Plt. Wt. [4, 14]: 2e
Root Wt. [4, 14]: 0.3de
Shoot Wt. [4, 14]: 1.7 days
Leaf # [5, 15]: 4.7 de
Plt. Ht. [5, 15]: 4.7 cd inches
Plt. Wt. [5, 15]: 3.7 d grams
Root Wt. [5, 15]: 1.4 cd grams
Shoot Wt. [5, 15]: 2.3 e grams
Vigor (1-5) [5, 15]: 2.9 de
Leaf # [5, 16]: 4.1 f
Plt. Ht. [5, 16]: 4.1 e inches
Plt. Wt. [5, 16]: 3 de grams
Root Wt. [5, 16]: 1.0 d grams
Shoot Wt. [5, 16]: 2.0 ef grams
Vigor (1-5) [5, 16]: 2.2 g
